Laboratory results taken from PMC10214526, “Semisynthetic LC3 Probes for Autophagy Pathways Reveal a Noncanonical LC3 Interacting Region Motif Crucial for the Enzymatic Activity of Human ATG3” (ACS Central Science, 2023).

System: ATG3 C1
Test: NaCl dependence of cross-linking of probe 2 with ATG3 C1
Assay type: biochemical, human
Conditions: probe 2 15 μM, ATG3 C1 15 μM, phosphate buffer, NaCl 0-500 mM, 37 °C, 30 min; n = 3
Procedure: Farnung et al. Supplementary Information […]
electrostatic representation of ATG3 LIR motif and GABARAP
Figure S13. Interaction of ATG3 and GABARAP is salt-dependent. a, ColabFold prediction of ATG3-GABARAP complex (in Fig. 1c) shown with its Coulombic potential. Only LIR motif of ATG3 shown for clarity.
LIRATG3 is mostly negatively charged and binds to a strongly positively charged surface on GABARAP. b, Binding of cyclized LIRATG3 peptide to GABARAP (0.2 μM) in the presence of varying amounts of NaCl. Binding was performed in triplicates and normalized to polarization for 0 mM NaCl. c, Modification of ATG3 C1 with 2 in the presence of increasing concentrations of NaCl (0 -500 mM). Coomassie Blue stained SDS-PAGE gel was analyzed by gel densitometry. d, Quantification of data shown in […]. […]
Figure S14. […] Lipidation was assessed by immunoblotting against LC3A/B. Lipidation was observed upon re-expression of ATG3 wt but not ATG3 C264A or ΔLIR. As a positive control wild-type HEK293T cells were starved and analyzed in parallel to ATG3 –/– cells. […]
SDS-PAGE (8-16%, Bio-Rad) and visualized by Coomassie staining. Gel bands were quantified by gel densitometry using ImageLab (Bio-Rad).
ATG3 C1 (15 μM) was mixed with GABARAP methyl fumarate 2 (15 μM) in PBS, and the reaction mixture was incubated at 37 °C for 30 min. […] Gel bands were quantified by gel densitometry using ImageLab […]

“GABARAP(ΔG116)–NHNH methyl-fumarate [compound 2]” was tested, and the “Effect of increasing NaCl on cross-linking with ATG3 C1” value was “reduced”.
